Test results from patent US12448388B2, “PRMT5 inhibitors and uses thereof” (Gilead Sciences, Inc., priority 2023, dated 2025).
Converted amounts (≈) assume the structure as drawn. Like-named read-outs stand apart in the source and are kept apart here.

Experiments:
[1] = PBS solubility (kinetic solubility from DMSO stocks); assay type: physicochemical; details: 22 °C, aqueous buffer, kinetic from dmso stock; 1x PBS pH 7.4, 1.0% DMSO, 24-hour incubation at ambient temperature
How it was run: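 Kinetic solubility in 1× PBS pH 7.4 with 1.0% final DMSO, maximum theoretical concentration 100 μM from 10 mM stock. After 24 h at ambient temperature (20.8-24.0 °C) the samples were vacuum-filtered and filtrates quantified by nitrogen detection against a calibration curve. Values were background-corrected and reported in μM and μg/mL.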

[2] = MDR1/BCRP assay: permeability in cPgp-KO-MDCK-WT cells; assay type: in vitro ADME; details: dog, pH 7.4
Protocol: The cells were maintained in an incubator at 37° C., 90% humidity, and 5% CO2 until reaching confluence over 5 days in 96-well transwell plates. Experiments were conducted using an HBSS donor buffer (Invitrogen) containing 10 mM HEPES and 15 mM glucose, adjusted to pH 7.4. The receiver well contained HBSS buffer supplemented with 1% BSA, 10 mM HEPES, and 15 mM glucose, and the pH was adjusted to 7.4. TEER values were measured to assess membrane integrity after an initial equilibration with BSA-free transport buffer for 15 minutes. The experiment was started by adding dosing solutions containing test compounds at 1 μM. Cells were dosed on the apical (A) side or basolateral (B) side at 100 μl and 200 μl, respectively, to determine forward (A to B) and reverse (B to A) permeability. At the 2-hour time point, 50 μl samples were collected from the receiver compartment. Each compound was tested in 2 separate replicate wells for each condition. All samples were immediately collected into plates, and 50 μL of acetonitrile was added. Subsequently, 350 μl of 30:70 methanol: acetonitrile containing internal standard was added to precipitate proteins and stabilize the test compounds. To test for non-specific binding and compound instability, the total amount of the drug was quantified at the end of the experiment and compared to the material present in the original dosing solution as a percentage of the recovery. All samples were analyzed by LC-MS/MS using electrospray ionization.
The apparent permeability, Papp, and % recovery were calculated as follows: […]

[3] = test system: HCT116 MTAP-deleted cell lines; assay: Cell viability assay (CellTiter-Glo, 7 days), HCT116 MTAP-deleted; assay type: cell-based; details: for Selectivity: HCT116 WT CC50 versus HCT116 MTAP^del CC50; for plasma-adjusted CC50 (paCC50): paCC50 = CC50-HCT116-MTAP^del * (% free CCM/% free human plasma); for CC50: Homo sapiens, HCT116 MTAP-deleted
How it was run: (§1)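 Luminescent ATP readout (CellTiter-Glo) after 7 days of continuous compound exposure gives the CC50 value. Cells were plated onto pre-dispensed DMSO dilution series of the PRMT5 inhibitors and kept at 37 °C in 5% CO2.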

[4] = Hepatocyte stability assay, human; assay type: in vitro ADME; details: human hepatocytes, 1 μM
Protocol: BioreclamationIVT (Baltimore, MD) provided the cryopreserved hepatocytes, hepatocyte thawing (HT) medium, and Krebs-Henseleit buffer (KHB) medium. The stock solution concentration was 1 M in DMSO and was then diluted further in acetonitrile/water (1:1 v/v). All other chemicals were purchased from Sigma-Aldrich (St. Louis, MO) or Thermo Fisher Scientific (Waltham, MA).
The quench solution used to stop reactions in the hepatocyte incubations was comprised of 100% (v/v) acetonitrile. Internal Standard/Quench (IS/Q) solution used to stop reactions with the positive control also contained 200 nM Labetalol.
Metabolic Stability in Cryopreserved Hepatocytes: Test compounds, or the positive control metabolic substrate, was incubated in suspensions of cryopreserved hepatocytes at a final concentration of 1 μM. Vials containing cryopreserved hepatocytes were removed from liquid nitrogen and immediately immersed in a 37° C. water bath. The vials were swirled gently until the contents had thawed. They were then immediately emptied into 48 mL of pre-warmed thawing medium in a 50 mL conical tube. Cells remaining in the vial were re-suspended with 1.0 mL of pre-warmed thawing medium and added to the conical tube. The tube was capped and then gently inverted several times to re-suspend the hepatocytes. The cell suspension was centrifuged at 500×g for 10 minutes at room temperature and the supernatant discarded. The cell pellet was loosened by gently swirling the centrifuge tube. Non-supplemented KHB medium was added to obtain the appropriate target cell density. The viabilities of all cell preparations were ≥85%, assessed by Trypan blue dye exclusion.
For incubations, aliquots of hepatocyte suspension (250 μL containing a cell concentration of 2×10^6 cells/mL) were added to 250 μL of 2 μM substrate (test compound or positive control) in supplemented KHB in duplicate wells in a 24-well plate. Final concentration in the incubations were 1×10^6 cells/mL and 1 μM substrate. A cell-free control incubation (KHB only) was also included. The incubations were carried out with gentle shaking in a 37° C. incubator under a humid atmosphere of 95% air/5% CO2 (v/v). Aliquots (100 μL) were removed after 0, 1, 3, and 6 hours and added to 200 μL quenching solution. The samples were then placed on a shaker for 10 min followed by centrifugation at 3000×g for 20 min. The supernatant was transferred to a new plate and diluted with 100 μL of water to reduce the organic content and then placed on a shaker for 10 mins. Samples were injected and analyzed with methods described below.
Liquid Chromatography: Quantification of positive control and test compound was performed by analyte/internal standard peak area ratios (PAR) measured on a Thermo Scientific™ Q Exactive™ Hybrid Quadrupole-Orbitrap Mass Spectrometer MS/MS with an electrospray interface operating in positive ion mode. The mass spectrometer was coupled to a Dionex Ultimate® 3000 HPLC system. Samples (10 μL aliquots) were injected with a Leap Technologies HTC PAL autosampler. For positive control, the column used was a Thermo Scientific™ Hypersil GOLD™ HPLC column ([…], 50×2.1 mm). Mobile phase A consisted of 95% (v/v) water, 5% (v/v) acetonitrile, and contained 0.1% (v/v) formic acid (FA). Mobile phase B consisted of 95% (v/v) acetonitrile, 5% (v/v) water, and contained 0.1% (v/v) FA. Elution was achieved, at a flow rate of 0.5 mL/min, by a series of linear gradients: initial condition was 5% B at 0 min, isocratic for 20 seconds; then linear gradient to 95% B over 90 seconds, followed by isocratic for 60 seconds at 95% B, and re-equilibrated to initial conditions over 70 seconds.
Metabolic stabilities of positive control and test compound were determined by measuring the rates of disappearance of the parent with time by determining the % of parent remaining at time t (Ct) {Obach 1997}.
Data (% of parent remaining) were plotted on a semi-log scale and fitted using an exponential fit: […]

[5] = Cell viability assay (CellTiter-Glo, 7 days), HCT116 WT; assay type: cell-based; details: human, HCT116 WT cells, 7 days of treatment, CTG
How it was run: as §1

[6] = HCT-116, 168 h, 7 days of treatment, CTG, read-out: CC50-HCT116-MTAP^del
[7] = HCT-116, cell viability, class symbols, read-out: CC50

Structure (SMILES) | solubility at 24 h [1] [µM] | Papp A→B at 2 h, 1 µM [2] [nm/s] | Selectivity [3] | plasma-adjusted CC50 (paCC50) ([3]; HCT-116) [µM] | CC50 [3, 6] [µM] | Human Predicted Hepatocyte CL [4] [L/h/kg] | CC50 at 7 days [5] [µM] | CC50 [3, 7] [µM]
Cc1ncc2c(N)nc3cnc(C(=O)N4CCC[C@@H]5Oc6cc(OC(F)(F)F)cc(F)c6[C@@H]54)cc3n12 [Fg-66, (4-amino-1-methylimidazo[1,5-a]pyrido[3,4-e]pyrazin-8-yl)((4aS,9bS)-9-fluoro-7-(trifluoromethoxy)-3,4,4a,9b-tetrahydrobenzofuro[3,2-b]867yridine-1(2H)-yl)methanone] | < 1 | 193 | 116 | 0.788 | 0.072 | 0.28 | 8.37 | 
Nc1nc2cc(F)c(C(=O)N3CCC[C@@H]4Oc5cc(C(F)(F)F)ncc5[C@@H]43)cc2n2cncc12 [Ff-117, (4-amino-7-fluoroimidazo[1,5-a]quinoxalin-8-yl)((4aS,9bS)-7-(trifluoromethyl)-3,4,4a,9b-tetrahydrofuro[3,2-b:4,5-c′]dipyridin-1(2H)-yl)methanone] | 54.7 (≈ 25.8 µg/mL) | 113 | 69 | 0.269 | 0.018 | 0.05 | 1.25 | < 0.1
Cc1ncc2c(N)nc3cnc(C(=O)N4CCC[C@@H]5Oc6cc(C(F)(F)F)ccc6[C@@H]54)cc3n12 [Ff-344, (4-amino-1-methylimidazo[1,5-a]pyrido[3,4-e]pyrazin-8-yl)((4aS,9bS)-7-(trifluoromethyl)-3,4,4a,9b-tetrahydrobenzofuro[3,2-b]pyridin-1(2H)-yl)methanone] | < 1 | 147 | 85 | 0.476 | 0.027 | 0.07 | 2.3 | < 0.1
Cc1ncc2c(N)nc3cnc(C(=O)N4CC[C@H]5C[C@@H]4c4cc(F)c(C(F)(F)F)cc4O5)cc3n12 [Ff-696, (4-amino-1-methylimidazo[1,5-a]pyrido[3,4-e]pyrazin-8-yl)((2S,6R)-8-fluoro-9-(trifluoromethyl)-3,4-dihydro-2H-2,6-methanobenzo[b][1,5]oxazocin-5(6H)-yl)methanone] | 2.9 (≈ 1.41 µg/mL) | 210 | 83 | 0.198 | 0.017 | 0.27 | 1.41 | 
Cc1ncc2c(N)nc3cnc(C(=O)N4CCC[C@@H]5Oc6cc(C(F)(F)F)cc(F)c6[C@@H]54)cc3n12 [Fg-67, (4-amino-1-methylimidazo[1,5-a]pyrido[3,4-e]pyrazin-8-yl)((4aS,9bS)-9-fluoro-7-(trifluoromethyl)-3,4,4a,9b-tetrahydrobenzofuro[3,2-b]pyridin-1(2H)-yl)methanone] | 1.7 (≈ 0.827 µg/mL) | 185 | 112 | 0.402 | 0.038 | 0.24 | 4.26 | 
[2H]C1([2H])CC[C@@H]2Oc3cc(C(F)(F)F)ccc3[C@@H]2N1C(=O)c1cc2c(cc1F)nc(N)c1cncn12 [Ff-121, (4-amino-7-fluoroimidazo[1,5-a]quinoxalin-8-yl)((4aS,9bS)-7-(trifluoromethyl)-3,4,4a,9b-tetrahydrobenzofuro[3,2-b]pyridin-1(2H)-yl-2,2-d2)methanone] | 4 (≈ 1.89 µg/mL) | 151 | 153 | 0.106 | 0.003 | 0.48 | 0.459 | < 0.1
Nc1nc2ccc(C(=O)N3CCC[C@@H]4Oc5cc(C(F)(F)F)cc(F)c5[C@@H]43)cc2n2cncc12 [Ff-693, (4-aminoimidazo[1,5-a]quinoxalin-8-yl)((4aS,9bS)-9-fluoro-7-(trifluoromethyl)-3,4,4a,9b-tetrahydrobenzofuro[3,2-b]pyridin-1(2H)-yl)methanone] |  | 126 | 125 | 0.247 | 0.015 | 0.31 | 1.88 | 
Nc1nc2cc(F)c(C(=O)N3CC[C@H]4C[C@@H]3c3ccc(C(F)(F)F)nc3O4)cc2n2cncc12 [Ff-366, (4-amino-7-fluoroimidazo[1,5-a]quinoxalin-8-yl)((2S,6R)-9-(trifluoromethyl)-3,4-dihydro-2H-2,6-methanopyrido[2,3-b][1,5]oxazocin-5(6H)-yl)methanone] | 25.2 (≈ 11.9 µg/mL) | 90 | 75 | 0.206 | 0.029 | 0.05 | 2.17 | < 0.1
